Structures are written as SMILES.

Common to all, as to format: biochemical
One experiment has as its target T1, CDK2 (Homo sapiens, UniProt P24941).
T1 construct: made in house
The experiment in a line: CDK2 substrate phosphorylation assay (biotinylated peptide, 32P-ATP). The following applies: Inhibition of CDK2. On the procedure:
The compounds of the present invention have valuable pharmacologic properties. Different compounds from this class are particularly effective at inhibiting CDK2 and/or CDK4 enzymes at concentrations, which range from 0.0001 to 1 μM and additionally show specificity relative to other kinases. Substrate phosphorylation assays were carried out as follows:
Cyclin dependent protein kinase 2 assays utilized the peptide Biotin-aminohexyl-ARRPMSPKKKA-NH2 as phosphoryl group acceptor. CDK2 was expressed utilizing a baculovirus expression system and was partially purified to comprise 20-80% of total protein, with no detectable competing reactions present. Typically, assays were performed by incubating enzyme (0.2-10 nM), with and without inhibitor, peptide substrate (1-10 nM), [g-^32P]ATP (1-20 nM), and 10-20 mM Mg^2+ for periods of time generally within the range 10-120 minutes. Reactions were terminated with 0.2-2 volumes of either 20% acetic acid or 50-100 mM EDTA buffered to pH 7 (substrate consumption <20%). The buffer employed in enzyme assay was 100 mM HEPES pH 7.5 containing 0.1 mg/mL BSA and 5% DMSO. Inhibitors were diluted in 100% DMSO prior to addition into the assay. Detection of peptide phosphorylation was accomplished by scintillation counting following either collection of peptide onto phosphocellulose filters (for reactions stopped with acetic acid), collection of peptide in wells of 96 well plates coated with Streptavidin (Pierce) (reactions were stopped with EDTA), or addition of Avidin coated Scintillant impregnated beads (Scintillation Proximity Assays from Amersham, reactions were stopped with EDTA). Counts detected by any of these methodologies minus the appropriate background (assays with additional 40 mM EDTA or lacking peptide substrate) were assumed to be proportional to the reaction initial rates, and IC50s were determined by a least squares fit to the equation CPM=Vmax*(1−([I]/(K+[I])))+nsb, or −pIC50s were determined by a fit to the equation CPM=nsb+(Vmax−nsb)/(1+(x/10^x−pIC50)), where nsb are the background counts. Filters are washed four times with 75 mM phosphoric acid. Radioactivity was determined by liquid scintillation counting.

Another experiment concerns the target T2, CDK4 (Homo sapiens, UniProt P11802).
T2 construct: made in house
The experiment in a line: CDK4 substrate phosphorylation assay (Rb protein, 33P-ATP). The following applies: Inhibition of CDK4. In short, it runs like this: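 Baculovirus-expressed cyclin D1/CDK4 (5-50 nM) phosphorylated 0.5 μM GST-Rb (residues 773-928) with [33P]-ATP (1 nM-20 μM) in 100 mM HEPES pH 7.5, 5-20 mM MgCl2, 2% DMSO for 10-60 min at 30° C. Phosphorylation was counted by scintillation. IC50/pIC50 were fitted over 0.1 nM-50 μM inhibitor.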

The target in another experiment is hVEGFR2 (Homo sapiens, UniProt P35968). The experiment in a line: VEGFR2 HTRF assay. As to conditions: Inhibition of VEGFR2. Here is the method: The compounds of the present invention elicit important and measurable pharmacological responses. Different compounds from this class are particularly effective at inhibiting VEGFR2 enzymes, as described by the VEGFR2 HTRF assay below, at concentrations, which range from 0.0001 to 1 μM.
Chain of hVEGFR2 (P35968 20-1356): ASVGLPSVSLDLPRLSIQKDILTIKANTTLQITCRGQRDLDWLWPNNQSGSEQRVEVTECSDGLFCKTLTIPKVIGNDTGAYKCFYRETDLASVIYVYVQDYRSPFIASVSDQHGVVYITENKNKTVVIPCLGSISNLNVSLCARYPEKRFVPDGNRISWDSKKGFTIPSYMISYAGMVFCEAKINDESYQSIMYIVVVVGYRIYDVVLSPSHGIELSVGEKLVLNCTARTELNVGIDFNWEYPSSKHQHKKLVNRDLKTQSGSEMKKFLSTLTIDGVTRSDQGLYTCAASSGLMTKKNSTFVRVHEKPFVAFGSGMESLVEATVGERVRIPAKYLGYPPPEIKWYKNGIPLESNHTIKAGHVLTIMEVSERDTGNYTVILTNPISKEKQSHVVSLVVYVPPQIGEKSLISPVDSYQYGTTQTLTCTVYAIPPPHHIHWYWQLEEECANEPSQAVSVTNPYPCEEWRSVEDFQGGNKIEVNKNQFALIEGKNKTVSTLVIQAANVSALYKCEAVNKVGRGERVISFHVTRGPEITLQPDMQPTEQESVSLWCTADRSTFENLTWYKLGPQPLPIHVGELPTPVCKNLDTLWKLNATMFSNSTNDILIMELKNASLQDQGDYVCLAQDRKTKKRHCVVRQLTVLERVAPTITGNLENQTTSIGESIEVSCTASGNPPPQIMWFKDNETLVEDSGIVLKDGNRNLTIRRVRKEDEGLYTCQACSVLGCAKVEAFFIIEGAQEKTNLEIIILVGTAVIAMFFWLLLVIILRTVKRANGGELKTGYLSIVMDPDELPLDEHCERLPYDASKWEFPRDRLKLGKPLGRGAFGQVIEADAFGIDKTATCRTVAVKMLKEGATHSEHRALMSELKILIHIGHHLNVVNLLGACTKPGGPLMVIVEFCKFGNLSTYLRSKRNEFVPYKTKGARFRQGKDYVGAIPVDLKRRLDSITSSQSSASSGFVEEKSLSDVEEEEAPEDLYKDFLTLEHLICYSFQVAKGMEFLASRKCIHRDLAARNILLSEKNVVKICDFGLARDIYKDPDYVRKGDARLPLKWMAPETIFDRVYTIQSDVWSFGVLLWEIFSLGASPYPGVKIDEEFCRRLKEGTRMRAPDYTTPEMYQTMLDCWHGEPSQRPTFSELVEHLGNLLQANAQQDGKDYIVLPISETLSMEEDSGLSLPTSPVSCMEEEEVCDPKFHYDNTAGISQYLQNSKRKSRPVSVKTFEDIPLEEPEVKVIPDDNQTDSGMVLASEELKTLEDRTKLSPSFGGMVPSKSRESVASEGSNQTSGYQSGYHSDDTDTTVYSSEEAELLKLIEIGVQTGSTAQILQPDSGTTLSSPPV
The assays were performed in 96-well black plates. 10 nM hVEGFR2 was used to phosphorylate 0.36 μM peptide (Biotin-Ahx-EEEEYFELVAKKKK) in the presence of 75 μM ATP, 5 mM MgCl2, 0.3 mM DTT, 0.1 mg/ml BSA, and 0.1 M HEPES (pH 7.5). 10 μl 0.5 M EDTA was added to reactions as negative controls. The 50 μl kinase reaction with or without inhibitors in 5% DMSO was carried out at room temperature for 45 minutes, then stopped by 40 μl of 125 mM EDTA. 2.4 μg/ml Streptavidin-APC and 0.15 μg/ml Eu-α-pY, in the presence of 0.1 mg/ml BSA, 0.1 M HEPES (pH7.5), were added to a final volume of 140 μl. The plate was incubated for 10 min at room temperature (22° C.) and read on the Victor with the time resolved fluorescence mode by exciting at 340 nm and reading the emission at 665 nm.
• Peptide from Synpep (Dublin, Calif.) • ATP, MgCl2, DTT, BSA, HEPES, EDTA, DMSO from Sigma Streptavidin-APC from Molecular Probes (Eugene, Oreg.) • Eu-α-pY from EG&G Wallac (Gaithersburg, Md.)
A general note: TR-FRET usually uses a lanthanide donor and a delayed reading to cut background.

T2 sequence (P11802 whole entry, species assumed): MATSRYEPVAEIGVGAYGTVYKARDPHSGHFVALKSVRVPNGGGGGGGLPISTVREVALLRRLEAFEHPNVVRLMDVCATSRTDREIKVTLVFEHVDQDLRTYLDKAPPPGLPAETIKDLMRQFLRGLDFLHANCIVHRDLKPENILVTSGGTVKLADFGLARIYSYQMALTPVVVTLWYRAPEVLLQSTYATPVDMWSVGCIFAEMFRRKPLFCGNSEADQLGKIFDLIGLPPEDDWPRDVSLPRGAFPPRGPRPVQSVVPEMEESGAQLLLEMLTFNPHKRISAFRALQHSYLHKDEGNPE
T2 sequence (P24385 whole entry partner, species assumed): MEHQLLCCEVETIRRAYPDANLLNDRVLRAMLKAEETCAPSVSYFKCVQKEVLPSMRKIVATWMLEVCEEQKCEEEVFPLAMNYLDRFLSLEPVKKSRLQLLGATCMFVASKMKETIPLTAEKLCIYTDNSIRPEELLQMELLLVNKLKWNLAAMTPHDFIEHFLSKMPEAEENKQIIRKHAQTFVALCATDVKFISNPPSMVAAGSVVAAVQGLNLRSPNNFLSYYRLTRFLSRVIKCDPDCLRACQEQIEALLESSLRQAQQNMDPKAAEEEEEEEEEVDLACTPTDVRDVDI

The term IC50 denotes the concentration needed to halve the response being measured. The low end stands for higher potency, the high end for lower potency. Consider `COc1cccc(-c2cnc(Nc3ccc(CN4CCCCC4)cc3)o2)c1` [Example 43, 5-(3-methoxyphenyl)-N-[4-(piperidin-1-ylmethyl)phenyl]-1,3-oxazol-2-amine], for which the results for the IC50 against CDK2, at CDK4 and against hVEGFR2 were < 1000 nM, < 100 nM and < 1000 nM, respectively.
In the case of `COc1cccc(-c2cnc(Nc3ccc(CN4CCCC4)cc3)o2)c1` [Example 44, 5-(3-methoxyphenyl)-N-[4-(pyrrolidin-1-ylmethyl)phenyl]-1,3-oxazol-2-amine], the IC50 at CDK2 was < 1000 nM; against CDK4, < 100 nM; on hVEGFR2, < 100 nM.
For `CCN(CC)Cc1ccc(Nc2ncc(-c3cccc(OC)c3)o2)cc1` [Example 45, N-{4-[(diethylamino)methyl]phenyl}-5-(3-methoxyphenyl)-1,3-oxazol-2-amine], the figures for the IC50 against CDK2, against CDK4 and against hVEGFR2 were < 1000 nM, < 100 nM and < 1000 nM, respectively.
Regarding `CCN(CC)CCNC(=O)c1ccc(Nc2ncc(-c3cccc(OC)c3)o2)cc1` [Example 46, N-[2-(diethylamino)ethyl]-4-{[5-(3-methoxyphenyl)-1,3-oxazol-2-yl]amino}benzamide], the IC50 against CDK2, against CDK4 and at hVEGFR2 was < 1000 nM in each case.
Take `COc1cccc(-c2cnc(Nc3ccc(C(=O)N4CCN(C)CC4)cc3)o2)c1` [Example 47, 5-(3-methoxyphenyl)-N-{4-[(4-methylpiperazin-1-yl)carbonyl]phenyl}-1,3-oxazol-2-amine]: the IC50 against CDK2, at CDK4 and on hVEGFR2 was < 1000 nM throughout.
Consider `CCN(CC)CCNC(=O)c1ccc(Nc2ncc(-c3cccc(OC4CCCC4)c3)o2)cc1` [Example 48, 4-({5-[3-(cyclopentyloxy)phenyl]-1,3-oxazol-2-yl}amino)-N-[2-(diethylamino)ethyl]benzamide], for which the values for the IC50 on CDK2, against CDK4 and against hVEGFR2 were < 1000 nM, < 100 nM and < 1000 nM, respectively.

Values taken from US20070142437A1, “CHEMICAL COMPOUNDS” (priority 2005, published 2007).
